# Data: patent US5407940A, “New ellipticine compounds” (priority 1992, dated 1995)
# Like-named read-outs stand apart in the source and are kept apart here.
# How the values were obtained:
# KB-A1 [1] = test system: KB-A1
# KB-3-1 = test: Cytotoxicity, sensitive line KB-3-1; format: cell-based; conditions: Homo sapiens, KB 3-1, 96 h, read-out: Cytotoxicity IC50, sensitive KB-3-1
# Excerpt: (§1) The cells are distributed on microplates and exposed to the cytotoxic compounds.
# leukaemia P388 [2] = test: Anti-tumour activity against leukaemia P388 in vivo; conditions: for Survivors on d60/total no. of mice / T/C: intraperitoneal, day 1; for cures, treated mice (comparators): reference compounds, dose not given
# L1210 = test: Cytotoxicity, line L1210 (Microculture Tetrazolium Assay); format: cell-based, murine; conditions: for IC50: Mus musculus, L1210, 48 h, read-out: Cytotoxicity IC50, line L1210
# Excerpt: as §1
# KB-A1 [3] = test: cells; conditions: Homo sapiens, KB-A1, 96 h, read-out: Cytotoxicity IC50, resistant KB-A1
# [4] = Anti-tumour activity against M5076 sarcoma; format: in vivo, female B6D2F1 mice; conditions: mouse, in vivo, ip; read-out: maximum tolerated dose
# Protocol: (§2) M5076 sarcoma is supplied by NCI (Frederick, USA). The tumour cells (10^7 cells/animal) were inoculated on d0 into the peritoneal cavity of female B6D2F1 mice. The compounds were administered by the i.p. route on d1, d5, d9 and d13 at the doses indicated. The surviving animals on d90 were recorded and the T/C survival (%) was calculated.
# M5076 sarcoma = test: Anti-tumour activity against M5076 sarcoma; format: in vivo, female B6D2F1 mice; conditions: for Survivors on d90 / median T/C (survival): i.p., d1, d5, d9, d13
# Protocol: as §2
# leukaemia P388 [5] = conditions: mouse, in vivo
# colon 38 = test: Anti-tumour activity against colon 38; format: in vivo, female B6D2F1 mice; conditions: i.v., d2 and d9, d25
# Protocol: Colon 38 (supplied by NCI, Frederick, USA) was inserted in the form of fragments by the subcutaneous route into female B6D2F1 mice. The compounds were administered by the i.v. route on d2 and d9 and the anti-tumour activity was determined on […] by measuring the tumour volume (T/C volume, %).
# P388/VCR-20 [6] = test: cells; conditions: Mus musculus, P388, 48 h, read-out: Cytotoxicity IC50, resistant P388/VCR-20
# S1 = test: Cytotoxicity, sensitive line S1; format: cell-based; conditions: Homo sapiens, 96 h, read-out: Cytotoxicity IC50, sensitive S1
# Excerpt: as §1
# P388 = test: Cytotoxicity, sensitive line P388 (Microculture Tetrazolium Assay); format: cell-based, murine; conditions: Mus musculus, P388, 48 h, read-out: Cytotoxicity IC50, sensitive P388
# Excerpt: as §1
# [7] = test system: Lewis pulmonary carcinoma; test: Anti-tumour activity against Lewis pulmonary carcinoma; format: in vivo, female B6D2F1 mice; conditions: for Survivors on d90 / median T/C (survival) / median T/C (volume) d20: i.v., d3, d6, d9; for activity against this very resistant model (in words): adriamycin at the maximum tolerated dose
# S1/tMDR [8] = test system: S1/tMDR
# P388/VCR-20 [9] = test system: P388/VCR-20
# S1/tMDR [10] = test: cells; conditions: Homo sapiens, 96 h, read-out: Cytotoxicity IC50, resistant S1/tMDR
# [11] = maximum tolerated dose (2 mg/kg)
smiles,measurement,setting,value
"Cc1c2cc[n+](C)cc2c(C)c2c1[nH]c1ccc(O)cc12 [elliptinium acetate, reference compound]",resistance factor,KB-A1 [1],19
same,IC50,KB-3-1,226 nM
same,Survivors on d60/total no. of mice,leukaemia P388 [2]; 5 mg/kg,0/10
same,T/C,leukaemia P388 [2]; 5 mg/kg,171%
same,gravimetric variation,"leukaemia P388 [2]; at the optimum dose used, equitoxic doses",-4 g
same,toxic at dose and above,"leukaemia P388 [2]; mouse, in vivo",≥ 5 mg/kg
same,"cures, treated mice (comparators)",leukaemia P388 [2],none
same,IC50,L1210,139 nM
same,IC50,KB-A1 [3],4320 nM
same,MTD,[4],2 mg/kg
same,Survivors on d90,M5076 sarcoma; 1 mg/kg,1/10
same,median T/C (survival),M5076 sarcoma; 1 mg/kg,153%
same,Survivors on d90,M5076 sarcoma; 2 mg/kg,0/10
same,median T/C (survival),M5076 sarcoma; 2 mg/kg,180%
same,activity against that tumour (in words),M5076 sarcoma; [11],not very active
same,survivors,M5076 sarcoma; [11],no animal has survived
"COc1cccc2c1C(=O)c1c(O)c3c(c(O)c1C2=O)C[C@@](O)(C(=O)CO)C[C@@H]3O[C@H]1C[C@H](N)[C@H](O)[C@H](C)O1 [ADR, adriamycin, reference compound]",gravimetric variation,leukaemia P388 [5],-0.7 g
same,IC50,KB-3-1,5 nM
same,median T/C (tumour volume),colon 38; 15 mg/kg,0%
same,IC50,P388/VCR-20 [6],340 nM
same,IC50,S1,36 nM
same,Survivors on d60/total no. of mice,leukaemia P388 [2]; 10 mg/kg,2/10
same,T/C,leukaemia P388 [2]; 10 mg/kg,290%
same,"cures, treated mice (comparators)",leukaemia P388 [2],2
same,IC50,P388,20 nM
same,IC50,L1210,26.4 nM
same,IC50,KB-A1 [3],6870 nM
same,Survivors on d90,[7]; 5 mg/kg,2/10
same,median T/C (survival),[7]; 5 mg/kg,125%
same,median T/C (volume) d20,[7]; 5 mg/kg,44%
same,Survivors on d90,[7]; 10 mg/kg,3/10
same,median T/C (survival),[7]; 10 mg/kg,128%
same,median T/C (volume) d20,[7]; 10 mg/kg,1%
same,Survivors on d90,"[7]; 2,5 mg/kg",0/10
same,median T/C (survival),"[7]; 2,5 mg/kg",108%
same,median T/C (volume) d20,"[7]; 2,5 mg/kg",63%
same,activity against this very resistant model (in words),[7],far less active
same,Survivors on d90,M5076 sarcoma; 5 mg/kg,4/10
same,median T/C (survival),M5076 sarcoma; 5 mg/kg,320%
"Cc1c2ccnc(C(=O)NCCN(C)C)c2cc2c3cc(O)ccc3n(C)c12 [Example 1, 1-(N,N-Dimethylaminoethylaminocarbonyl)-5,6-dimethyl-9-hydroxy-6H-pyrido[4,3-b]carbazole]",resistance factor,S1/tMDR [8]; S1/tMDR vs S1,"0,5"
same,sensitivity of resistant line S1/tMDR relative to corresponding sensitive line,S1/tMDR [8]; vs S1,more sensitive
same,resistance factor,KB-A1 [1]; KB-A1 vs KB-3-1,10
same,IC50,KB-3-1; 4 days incubation,12 nM
same,median T/C (tumour volume),colon 38; 20 mg/kg,41%
same,median T/C (tumour volume),colon 38; 40 mg/kg,16%
same,median T/C (tumour volume),colon 38; 60 mg/kg,0%
same,IC50,P388/VCR-20 [6],4 nM
same,IC50,S1; 4 days incubation,49 nM
same,Survivors on d60/total no. of mice,leukaemia P388 [2]; 5 mg/kg,1/10
same,T/C,leukaemia P388 [2]; 5 mg/kg,163%
same,Survivors on d60/total no. of mice,leukaemia P388 [2]; 10 mg/kg,1/10
same,T/C,leukaemia P388 [2]; 10 mg/kg,183%
same,Survivors on d60/total no. of mice,leukaemia P388 [2]; 20 mg/kg,2/10
same,T/C,leukaemia P388 [2]; 20 mg/kg,220%
same,Survivors on d60/total no. of mice,leukaemia P388 [2]; 30 mg/kg,3/10
same,T/C,leukaemia P388 [2]; 30 mg/kg,200%
same,Survivors on d60/total no. of mice,leukaemia P388 [2]; 60 mg/kg,3/10
same,T/C,leukaemia P388 [2]; 60 mg/kg,257%
same,long-term survivors over all doses employed,leukaemia P388 [2]; all doses employed,all the doses employed giving long-term survivors
same,"cures, treated mice",leukaemia P388 [2]; single administration of 30 mg/kg,7 out of 10
same,IC50,P388; 2 days incubation,5 nM
same,times more cytotoxic than adriamycin,L1210; L1210,approximately 9 times
same,times more cytotoxic than elliptinium acetate,L1210; L1210,~46 times
same,IC50,L1210; 2 days incubation,2.6 nM
same,resistance factor,P388/VCR-20 [9]; P388/VCR-20 vs P388,"0,8"
same,sensitivity of resistant line P388/VCR-20 relative to corresponding sensitive line,P388/VCR-20 [9]; vs P388,more sensitive
same,IC50,KB-A1 [3],120 nM
same,IC50,S1/tMDR [10],25 nM
same,Survivors on d90,[7]; 20 mg/kg,6/10
same,median T/C (survival),[7]; 20 mg/kg,> 300%
same,median T/C (volume) d20,[7]; 20 mg/kg,1%
same,curative for % of the animals,[7]; 40 mg/kg,100%
same,Survivors on d90,[7]; 40 mg/kg,10/10
same,median T/C (survival),[7]; 40 mg/kg,> 300%
same,median T/C (volume) d20,[7]; 40 mg/kg,0%
same,Survivors on d90,[7]; 60 mg/kg,6/10
same,median T/C (survival),[7]; 60 mg/kg,> 300%
same,median T/C (volume) d20,[7]; 60 mg/kg,0%
same,activity against this very resistant model (in words),[7],very active
same,Survivors on d90,M5076 sarcoma; 5 mg/kg,0/10
same,median T/C (survival),M5076 sarcoma; 5 mg/kg,168%
same,Survivors on d90,M5076 sarcoma; 10 mg/kg,4/10
same,median T/C (survival),M5076 sarcoma; 10 mg/kg,301%
same,activity against that tumour (in words),M5076 sarcoma; 20 mg/kg,very active
same,Survivors on d90,M5076 sarcoma; 20 mg/kg,6/10
same,median T/C (survival),M5076 sarcoma; 20 mg/kg,> 352%
